Test results as given in ChEMBL document CHEMBL1122916, “Synthesis of xanthines as adenosine antagonists, a practical quantitative structure-activity relationship application” (J Med Chem, 1985).
Values after ≈ are worked out from the molar mass of the structure shown.

Key:
Adenosine receptor A1 [1] = molecular target: T1, Adenosine receptor A1 (Rattus norvegicus, UniProt P25099); test: Binding affinity against rat brain adenosine A1 receptor by using N6-[3H]- cyclohexyladenosine as radioligand
T1 sequence (P25099 whole entry): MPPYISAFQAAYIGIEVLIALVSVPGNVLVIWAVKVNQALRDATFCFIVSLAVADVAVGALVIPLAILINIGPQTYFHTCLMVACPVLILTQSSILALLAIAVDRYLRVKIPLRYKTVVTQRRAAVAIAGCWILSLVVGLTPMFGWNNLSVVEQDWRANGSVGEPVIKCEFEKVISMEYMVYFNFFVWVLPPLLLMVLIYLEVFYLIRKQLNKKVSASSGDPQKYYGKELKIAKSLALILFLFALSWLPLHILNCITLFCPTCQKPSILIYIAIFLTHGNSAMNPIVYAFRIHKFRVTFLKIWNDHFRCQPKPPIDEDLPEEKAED

Adenosine receptor A1 [2] = molecular target: T2, Adenosine receptor A1 (Bos taurus, UniProt P28190)
T2 sequence (P28190 whole entry): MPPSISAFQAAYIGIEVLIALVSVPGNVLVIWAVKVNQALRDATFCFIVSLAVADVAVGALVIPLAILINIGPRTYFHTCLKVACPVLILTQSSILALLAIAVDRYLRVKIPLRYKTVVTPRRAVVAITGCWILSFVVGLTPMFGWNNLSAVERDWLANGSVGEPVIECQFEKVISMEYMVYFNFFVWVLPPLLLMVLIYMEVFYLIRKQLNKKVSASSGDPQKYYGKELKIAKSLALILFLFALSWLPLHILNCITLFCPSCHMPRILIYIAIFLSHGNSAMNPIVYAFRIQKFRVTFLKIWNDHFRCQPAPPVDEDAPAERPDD
Description: Binding affinity against bovine brain adenosine A1 receptor by using N6-[3H]- cyclohexyladenosine

Bos taurus = organism: Bos taurus; test: log(1000/IC50 determined from bovine brain membrane) expressed as potency; type: functional
[3] = Solubility in 0.1 N HCl; type: physicochemical
[4] = Partition coefficient (logP); type: physicochemical; settings: octanol/water
[5] = Solubility in 0.1 M phosphate buffer at pH 7.4; type: physicochemical; settings: buffer
[6] = Equilibrium constant (pKa) was determined.; type: physicochemical

SMILES	IC50 (Adenosine receptor A1 [2]) [nM]	Potency (Bos taurus)	also measured
CCn1c(=O)c2nc(-c3cccc(S(=O)(=O)NCCN(C)C)c3)[nH]c2n(CC)c1=O	29.4	–	IC50 (Adenosine receptor A1 [1]): 553 nM
Cn1c(=O)c2nc(-c3cccc4ccccc34)[nH]c2n(C)c1=O	–	1.1	–
CCn1c(=O)c2[nH]c(-c3ccc(S(=O)(=O)N4CCSCC4)cc3)nc2n(CC)c1=O	36.6	–	IC50 (Adenosine receptor A1 [1]): 646 nM
COc1cc(OC)cc(-c2nc3c(=O)n(C)c(=O)n(C)c3[nH]2)c1	–	0.3	–
COc1cccc(-c2nc3c(=O)n(C)c(=O)n(C)c3[nH]2)c1	–	1.7	–
COc1ccccc1-c1nc2c(=O)n(C)c(=O)n(C)c2[nH]1	–	0.46	–
C=CCn1c(=O)c2nc(-c3ccc(Cl)cc3N)[nH]c2n(CC=C)c1=O	–	3.1	–
CCCn1c(=O)c2nc(-c3ccc(Cl)cc3N)[nH]c2n(CCC)c1=O	–	4.3	–
Cn1c(=O)c2nc(-c3ccc(Cl)cc3N)[nH]c2n(C)c1=O	–	3.46	–
Cn1c(=O)c2nc(-c3ccc(I)cc3)[nH]c2n(C)c1=O	–	2.89	–
C=CCn1c(=O)c2nc(-c3ccc(S(=O)(=O)NCCCN(C)C)cc3)[nH]c2n(CC=C)c1=O	10.3	–	–
Cn1c(=O)c2nc(-c3ccccc3F)[nH]c2n(C)c1=O	–	1.9	–
Cn1c(=O)c2nc(-c3ccc(N)cc3)[nH]c2n(C)c1=O	–	2.76	–
Cn1c(=O)c2nc(-c3cccc([N+](=O)[O-])c3)[nH]c2n(C)c1=O	–	1.3	–
Cn1c(=O)c2[nH]c(-c3ccc(S(=O)(=O)O)cc3)nc2n(C)c1=O	21.9	–	–
CCCn1c(=O)c2[nH]c(-c3ccc(S(=O)(=O)NCCCN(C)C)cc3)nc2n(CCC)c1=O	0.08	–	IC50 (Adenosine receptor A1 [1]): 8.2 nM
Cn1c(=O)c2nc(-c3cccc(Br)c3)[nH]c2n(C)c1=O	–	2	–
CCn1c(=O)c2[nH]c(-c3ccc(S(=O)(=O)NCCCN(C)C)cc3)nc2n(CC)c1=O	1.6	–	IC50 (Adenosine receptor A1 [1]): 70 nM
Cn1c(=O)c2[nH]c(-c3ccc(Br)cc3)nc2n(C)c1=O	0.75	–	–
CCn1c(=O)c2nc(-c3ccc(S(=O)(=O)N4CCN(C)CC4)cc3)[nH]c2n(CC)c1=O	6.5	–	IC50 (Adenosine receptor A1 [1]): 190 nM
Cn1c(=O)c2[nH]c(-c3ccc4ccccc4c3)nc2n(C)c1=O	5.5	–	–
CCCn1c(=O)c2nc(-c3ccc(N)cc3N)[nH]c2n(CCC)c1=O	0.15	3.82	–
C=CCn1c(=O)c2[nH]c(-c3ccccc3)nc2n(C)c1=O	–	2.4	–
Cc1ccc(-c2nc3c(=O)n(C)c(=O)n(C)c3[nH]2)cc1	–	3.1	–
CCn1c(=O)c2nc(-c3ccc(Br)cc3)[nH]c2n(CC)c1=O	–	3	–
Cn1c(=O)[nH]c2[nH]c(-c3ccccc3)nc2c1=O	–	2.6	–

SMILES	IC50 (Adenosine receptor A1 [2]) [nM]	Potency (Bos taurus)	also measured
Cn1c(=O)c2nc(-c3ccc([N+](=O)[O-])cc3N)[nH]c2n(C)c1=O	–	2.6	–
CCCCOc1ccc(-c2nc3c(=O)n(C)c(=O)n(C)c3[nH]2)cc1	–	2.4	–
C=CCn1c(=O)c2[nH]c(-c3ccc(Cl)cc3N)nc2n(C)c1=O	–	2.7	–
Cn1c(=O)c2[nH]c(-c3ccc(N)cc3)nc2n(C)c1=O	1.75	–	–
Cn1c(=O)c2nc(-c3ccccc3N)[nH]c2n(C)c1=O	5.5	2.26	–
Cn1c(=O)c2nc(-c3ccc(Cl)cc3)[nH]c2n(C)c1=O	–	3.1	–
CCOc1ccc(-c2nc3c(=O)n(C)c(=O)n(C)c3[nH]2)cc1	–	2.7	–
CCCn1c(=O)c2nc(-c3ccccc3)[nH]c2n(CCC)c1=O	–	3.15	–
Cc1cc(O)cc(C)c1-c1nc2c(=O)n(C)c(=O)n(C)c2[nH]1	–	1.52	–
Cn1c(=O)c2nc(-c3cccc(F)c3)[nH]c2n(C)c1=O	–	2.4	–
Cn1c(=O)c2nc(-c3ccc([N+](=O)[O-])cc3)[nH]c2n(C)c1=O	–	2.1	–
Cn1c(=O)c2nc(-c3ccc(C(=O)O)cc3)[nH]c2n(C)c1=O	–	1.3	–
COc1ccc(-c2nc3c(=O)n(C)c(=O)n(C)c3[nH]2)cc1	–	2.82	–
CCCn1c(=O)c2nc(-c3ccc(S(=O)(=O)NCCCCN(C)C)cc3)[nH]c2n(CCC)c1=O	0.07	–	IC50 (Adenosine receptor A1 [1]): 7.5 nM
Cn1c(=O)c2nc(-c3cccc(C(=O)O)c3)[nH]c2n(C)c1=O	–	0	–
Cn1c(=O)c2nc(-c3ccccc3C(=O)O)[nH]c2n(C)c1=O	–	-0.4	–
CC(C)c1ccc(-c2nc3c(=O)n(C)c(=O)n(C)c3[nH]2)cc1	–	2.6	–
Cn1c(=O)c2nc(-c3cccc(O)c3)[nH]c2n(C)c1=O	–	2.22	–
C=CCn1c(=O)c2[nH]c(-c3ccc(C)cc3N)nc2n(C)c1=O	–	2.15	–
CCCn1c(=O)c2nc(-c3ccc(S(=O)(=O)NCCCC(=O)OCC)cc3)[nH]c2n(CCC)c1=O	0.24	–	IC50 (Adenosine receptor A1 [1]): 18.5 nM
Cn1c(=O)c2nc(-c3cccc(N)c3)[nH]c2n(C)c1=O	–	2	–
Cn1c(=O)c2nc(-c3ccccc3[N+](=O)[O-])[nH]c2n(C)c1=O	–	1.1	–
CCn1c(=O)c2[nH]c(-c3ccccc3)nc2n(CC)c1=O	–	–	solubility [3]: 1 µg/mL (≈ 3.52 µM); logP [4]: 2.93; solubility [5]: 6 µg/mL (≈ 21.1 µM); pKa [6]: 9.1
CCCn1c(=O)c2[nH]c(-c3ccccc3)nc2n(CCC)c1=O	0.7	–	–
Cn1c(=O)c2nc(-c3ccc(O)cc3)[nH]c2n(C)c1=O	–	2.7	–
CCn1c(=O)c2[nH]c(-c3ccc(N(C)C)cc3)nc2n(CC)c1=O	3.3	–	IC50 (Adenosine receptor A1 [1]): 118 nM

SMILES	IC50 (Adenosine receptor A1 [2]) [nM]	Potency (Bos taurus)	also measured
CSc1ccc(-c2nc3c(=O)n(C)c(=O)n(C)c3[nH]2)cc1	–	2.7	–
Cn1c(=O)c2nc(-c3ccccc3O)[nH]c2n(C)c1=O	–	2	–
COc1ccc(-c2nc3c(=O)n(C)c(=O)n(C)c3[nH]2)c(OC)c1	–	0.7	–
Cn1c(=O)c2nc(-c3ccc(F)cc3)[nH]c2n(C)c1=O	–	2.46	–
Cn1c(=O)c2nc(-c3ccc(Cl)c(Cl)c3)[nH]c2n(C)c1=O	–	2.3	–
Cc1ccc(-c2nc3c(=O)n(C)c(=O)n(C)c3[nH]2)c(N)c1	–	2	–
CCn1c(=O)c2nc(-c3ccc(Cl)cc3N)[nH]c2n(CC)c1=O	–	3.1	–
Cc1cccc(-c2nc3c(=O)n(C)c(=O)n(C)c3[nH]2)c1	–	1.89	–
Cn1c(=O)c2nc(-c3ccc4ccccc4c3)[nH]c2n(C)c1=O	–	2.26	–
CCc1ccc(-c2nc3c(=O)n(C)c(=O)n(C)c3[nH]2)cc1	–	3.1	–
Cn1c(=O)c2nc(-c3ccc(N)cc3N)[nH]c2n(C)c1=O	–	2.1	–
Cc1ccccc1-c1nc2c([nH]1)c(=O)n(C)c(=O)n2C	6.5	–	–
Cn1c(=O)c2nc(-c3ccc(Br)cc3)[nH]c2n(C)c1=O	–	3.12	–
CCn1c(=O)c2[nH]c(-c3cccc(S(=O)(=O)O)c3)nc2n(CC)c1=O	8420	–	IC50 (Adenosine receptor A1 [1]): 30700 nM
CCn1c(=O)c2[nH]c(-c3ccc(S(=O)(=O)N4CCOCC4)cc3)nc2n(CC)c1=O	13	–	IC50 (Adenosine receptor A1 [1]): 310 nM
Cn1c(=O)c2[nH]c(-c3ccc(Cl)cc3N)nc2n(C)c1=O	0.35	–	–
Cn1c(=O)c2[nH]c(-c3ccccc3F)nc2n(C)c1=O	12.5	–	–
CN(C)c1ccc(-c2nc3c(=O)n(C)c(=O)n(C)c3[nH]2)cc1	–	2.74	–
CN(C)c1cccc(-c2nc3c(=O)n(C)c(=O)n(C)c3[nH]2)c1	–	1.1	–
Cc1ccccc1-c1nc2c(=O)n(C)c(=O)n(C)c2[nH]1	–	2.19	–
CCn1c(=O)c2[nH]c(-c3ccc(S(N)(=O)=O)cc3)nc2n(CC)c1=O	0.91	–	IC50 (Adenosine receptor A1 [1]): 47 nM
C=CCn1c(=O)c2nc(-c3ccc(S(=O)(=O)O)cc3)[nH]c2n(CC=C)c1=O	1140	–	IC50 (Adenosine receptor A1 [1]): 7440 nM
CCn1c(=O)c2nc(-c3ccc(S(=O)(=O)NCC(C)O)cc3)[nH]c2n(CC)c1=O (centres undefined)	4.2	–	IC50 (Adenosine receptor A1 [1]): 138 nM
Cn1c(=O)c2nc(-c3ccc(-c4ccccc4)cc3)[nH]c2n(C)c1=O	–	2.46	–
